This is an account of results in ChEMBL document CHEMBL1149076, “Sulfamides as novel histone deacetylase inhibitors” (Bioorg Med Chem Lett, 2009).

Assay [1] addresses T1, Histone deacetylase 1 (Homo sapiens, UniProt Q13547). Put plainly: Inhibition of human recombinant C-terminal FLAG-tagged HDAC1 expressed in baculovirus by fluorimetry.
Assay [2] deals with T2, Protein deacetylase HDAC6 (Homo sapiens, UniProt Q9UBN7).
T2 sequence (Q9UBN7 whole entry): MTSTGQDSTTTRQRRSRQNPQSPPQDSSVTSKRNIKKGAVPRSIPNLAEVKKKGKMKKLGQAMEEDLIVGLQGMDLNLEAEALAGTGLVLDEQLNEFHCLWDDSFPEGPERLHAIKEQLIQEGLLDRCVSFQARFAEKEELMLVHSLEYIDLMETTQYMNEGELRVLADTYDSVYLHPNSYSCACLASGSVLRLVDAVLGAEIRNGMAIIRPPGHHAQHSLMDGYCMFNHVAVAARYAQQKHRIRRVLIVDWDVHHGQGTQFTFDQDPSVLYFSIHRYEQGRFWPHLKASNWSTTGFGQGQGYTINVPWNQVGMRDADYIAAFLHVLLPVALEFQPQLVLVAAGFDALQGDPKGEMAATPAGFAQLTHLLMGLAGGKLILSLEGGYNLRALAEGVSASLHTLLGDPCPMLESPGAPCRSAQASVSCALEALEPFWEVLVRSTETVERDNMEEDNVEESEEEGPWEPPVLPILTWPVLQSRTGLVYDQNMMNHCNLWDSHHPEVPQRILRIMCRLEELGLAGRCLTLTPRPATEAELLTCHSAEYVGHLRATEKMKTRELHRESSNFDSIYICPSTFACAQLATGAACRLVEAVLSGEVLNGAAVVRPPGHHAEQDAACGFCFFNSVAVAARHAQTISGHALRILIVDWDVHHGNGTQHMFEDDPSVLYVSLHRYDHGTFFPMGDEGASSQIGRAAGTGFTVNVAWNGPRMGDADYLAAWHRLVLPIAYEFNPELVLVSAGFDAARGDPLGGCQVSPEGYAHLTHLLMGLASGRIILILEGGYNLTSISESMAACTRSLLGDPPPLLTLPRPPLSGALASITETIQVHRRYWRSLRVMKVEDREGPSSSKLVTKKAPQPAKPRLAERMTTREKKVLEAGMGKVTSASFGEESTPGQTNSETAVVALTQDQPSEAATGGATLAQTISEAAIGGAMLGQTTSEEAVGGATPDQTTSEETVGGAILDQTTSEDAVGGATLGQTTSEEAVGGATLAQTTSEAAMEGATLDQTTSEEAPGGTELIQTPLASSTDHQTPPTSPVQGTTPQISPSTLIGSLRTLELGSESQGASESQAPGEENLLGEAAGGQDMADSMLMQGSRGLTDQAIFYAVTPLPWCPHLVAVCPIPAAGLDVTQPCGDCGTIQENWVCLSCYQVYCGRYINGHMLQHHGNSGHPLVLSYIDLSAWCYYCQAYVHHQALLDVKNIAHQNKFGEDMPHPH
Put plainly: Inhibition of human recombinant N-terminal histidine-tagged HDAC6 expressed in baculovirus by fluorimetry.

Assay [3] has as its target Histone deacetylase 3 (Homo sapiens) (UniProt O15379). Nature of the assay: Inhibition of human recombinant C-terminal FLAG-tagged HDAC3 expressed in baculovirus by fluorimetry.
Assay [4] concerns the target T3, Histone deacetylase 8 (Homo sapiens) (UniProt Q9BY41).
T3 sequence (whole entry): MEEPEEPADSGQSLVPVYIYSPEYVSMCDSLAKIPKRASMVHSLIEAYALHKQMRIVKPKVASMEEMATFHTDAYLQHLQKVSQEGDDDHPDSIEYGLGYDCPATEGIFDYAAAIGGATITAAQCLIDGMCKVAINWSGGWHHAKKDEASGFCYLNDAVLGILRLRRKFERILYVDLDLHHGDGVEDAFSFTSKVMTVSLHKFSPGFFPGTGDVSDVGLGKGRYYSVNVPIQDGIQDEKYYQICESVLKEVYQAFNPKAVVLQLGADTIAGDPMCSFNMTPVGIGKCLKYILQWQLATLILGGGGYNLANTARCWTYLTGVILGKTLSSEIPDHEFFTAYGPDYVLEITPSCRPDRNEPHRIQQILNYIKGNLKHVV
Nature of the assay: Inhibition of human recombinant N-terminal histidine-tagged HDAC8 expressed in baculovirus by fluorimetry.

For assay [5], the target named is Histone deacetylase 4 (Homo sapiens) (UniProt P56524). Nature of the assay: Inhibition of human recombinant N-terminal histidine-tagged HDAC4 expressed in baculovirus by fluorimetry.
Assay [6] concerns the target Histone deacetylase 5 (Homo sapiens) (UniProt Q9UQL6). Nature of the assay: Inhibition of human recombinant N-terminal histidine-tagged HDAC5 expressed in baculovirus by fluorimetry.
In assay [7] the target is T4, Histone deacetylase 7 (Homo sapiens) (UniProt Q8WUI4).
T4 sequence (whole entry): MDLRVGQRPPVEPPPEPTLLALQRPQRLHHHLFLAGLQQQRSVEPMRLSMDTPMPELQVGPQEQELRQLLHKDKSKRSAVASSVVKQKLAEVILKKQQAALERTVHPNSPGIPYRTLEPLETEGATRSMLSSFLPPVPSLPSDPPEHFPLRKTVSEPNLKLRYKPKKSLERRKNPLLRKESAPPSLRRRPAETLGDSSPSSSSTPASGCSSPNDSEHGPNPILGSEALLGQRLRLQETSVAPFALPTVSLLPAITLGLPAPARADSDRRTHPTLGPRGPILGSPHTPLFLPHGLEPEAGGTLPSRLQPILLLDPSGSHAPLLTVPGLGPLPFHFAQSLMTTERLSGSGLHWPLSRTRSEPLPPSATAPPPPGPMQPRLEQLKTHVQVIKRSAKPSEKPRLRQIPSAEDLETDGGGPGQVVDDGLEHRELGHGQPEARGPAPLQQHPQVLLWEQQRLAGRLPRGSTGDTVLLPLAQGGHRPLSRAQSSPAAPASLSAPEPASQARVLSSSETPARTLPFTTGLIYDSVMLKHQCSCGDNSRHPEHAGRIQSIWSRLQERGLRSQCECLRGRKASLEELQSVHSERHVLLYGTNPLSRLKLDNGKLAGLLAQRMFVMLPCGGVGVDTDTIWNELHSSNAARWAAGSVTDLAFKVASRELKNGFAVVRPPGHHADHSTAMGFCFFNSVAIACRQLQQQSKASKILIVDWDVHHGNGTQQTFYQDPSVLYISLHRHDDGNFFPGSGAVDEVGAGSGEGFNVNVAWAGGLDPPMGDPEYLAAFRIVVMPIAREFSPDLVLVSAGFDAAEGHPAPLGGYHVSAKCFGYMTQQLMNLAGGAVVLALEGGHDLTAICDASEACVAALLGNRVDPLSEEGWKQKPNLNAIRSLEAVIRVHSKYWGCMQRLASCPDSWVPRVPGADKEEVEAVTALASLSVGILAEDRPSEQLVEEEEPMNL
Put plainly: Inhibition of human recombinant N-terminal histidine-tagged HDAC7 expressed in baculovirus by fluorimetry.

Assay [8] has as its target Histone deacetylase 2 (Homo sapiens) (UniProt Q92769). Nature of the assay: Inhibition of human recombinant C-terminal FLAG-tagged HDAC2 expressed in baculovirus by fluorimetry.
Assay [9] has as its target T1, Histone deacetylase 1. Put plainly: Inhibition of HDAC1 in human 293T cells after 16 hrs by fluorimetry. The format is cell-based.
Assay [10] deals with T-24. Nature of the assay: Induction of histone H3 acetylation in human T24 cells after 3 hrs by ELISA. The format is functional, cell-based. Particulars: T-24, 3 h. (ELISA stands for enzyme-linked immunosorbent assay.)
Assay [11] concerns T-24. Put plainly: Induction of alpha tubulin acetylation in human T24 cells after 3 hrs by ELISA. The format is functional, cell-based. The conditions noted are these: T-24, 3 h.

Activity calls are given as the source filed them. The rule behind the calls is not given here.

Sequence of Histone deacetylase 3 (Homo sapiens) (O15379 whole entry): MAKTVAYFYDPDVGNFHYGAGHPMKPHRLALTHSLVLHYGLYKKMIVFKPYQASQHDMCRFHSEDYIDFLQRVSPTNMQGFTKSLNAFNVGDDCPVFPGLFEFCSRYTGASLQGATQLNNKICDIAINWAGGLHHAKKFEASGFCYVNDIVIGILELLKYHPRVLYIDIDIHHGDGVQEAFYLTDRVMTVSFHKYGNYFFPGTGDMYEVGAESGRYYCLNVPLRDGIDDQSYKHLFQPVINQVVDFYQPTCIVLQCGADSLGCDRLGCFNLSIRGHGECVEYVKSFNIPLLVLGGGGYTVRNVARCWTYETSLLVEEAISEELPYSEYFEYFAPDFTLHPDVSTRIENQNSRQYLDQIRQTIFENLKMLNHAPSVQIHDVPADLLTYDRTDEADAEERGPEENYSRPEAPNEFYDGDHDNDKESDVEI
Sequence of Histone deacetylase 4 (Homo sapiens) (P56524 whole entry): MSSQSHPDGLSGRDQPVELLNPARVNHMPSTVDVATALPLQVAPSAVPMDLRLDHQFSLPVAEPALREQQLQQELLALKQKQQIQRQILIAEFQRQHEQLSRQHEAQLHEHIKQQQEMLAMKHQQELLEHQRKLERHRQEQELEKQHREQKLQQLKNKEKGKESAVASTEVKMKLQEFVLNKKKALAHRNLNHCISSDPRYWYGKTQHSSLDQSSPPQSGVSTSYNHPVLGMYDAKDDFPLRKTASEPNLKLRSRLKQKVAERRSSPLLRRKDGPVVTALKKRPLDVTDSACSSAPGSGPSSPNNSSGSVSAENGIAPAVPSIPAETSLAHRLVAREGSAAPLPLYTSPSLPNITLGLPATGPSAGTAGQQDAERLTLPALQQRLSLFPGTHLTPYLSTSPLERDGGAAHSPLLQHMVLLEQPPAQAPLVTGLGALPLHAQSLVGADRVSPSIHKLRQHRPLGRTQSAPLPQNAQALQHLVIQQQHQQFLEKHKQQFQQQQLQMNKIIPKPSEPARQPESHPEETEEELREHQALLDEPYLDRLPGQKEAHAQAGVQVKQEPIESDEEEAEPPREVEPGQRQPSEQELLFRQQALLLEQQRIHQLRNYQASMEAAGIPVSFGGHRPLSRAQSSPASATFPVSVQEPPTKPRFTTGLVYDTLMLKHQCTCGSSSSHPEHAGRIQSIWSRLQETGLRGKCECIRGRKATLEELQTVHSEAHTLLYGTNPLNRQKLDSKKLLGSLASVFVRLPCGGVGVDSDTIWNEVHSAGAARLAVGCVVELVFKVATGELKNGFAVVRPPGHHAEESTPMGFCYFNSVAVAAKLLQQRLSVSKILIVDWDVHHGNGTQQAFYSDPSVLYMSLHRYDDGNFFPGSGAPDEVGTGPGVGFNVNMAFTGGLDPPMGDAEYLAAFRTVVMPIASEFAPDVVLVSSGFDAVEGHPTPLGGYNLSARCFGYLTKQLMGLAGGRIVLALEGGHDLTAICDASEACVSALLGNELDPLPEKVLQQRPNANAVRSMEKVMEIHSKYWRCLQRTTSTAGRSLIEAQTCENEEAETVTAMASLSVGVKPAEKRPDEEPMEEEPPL
Sequence of Histone deacetylase 5 (Homo sapiens) (Q9UQL6 whole entry): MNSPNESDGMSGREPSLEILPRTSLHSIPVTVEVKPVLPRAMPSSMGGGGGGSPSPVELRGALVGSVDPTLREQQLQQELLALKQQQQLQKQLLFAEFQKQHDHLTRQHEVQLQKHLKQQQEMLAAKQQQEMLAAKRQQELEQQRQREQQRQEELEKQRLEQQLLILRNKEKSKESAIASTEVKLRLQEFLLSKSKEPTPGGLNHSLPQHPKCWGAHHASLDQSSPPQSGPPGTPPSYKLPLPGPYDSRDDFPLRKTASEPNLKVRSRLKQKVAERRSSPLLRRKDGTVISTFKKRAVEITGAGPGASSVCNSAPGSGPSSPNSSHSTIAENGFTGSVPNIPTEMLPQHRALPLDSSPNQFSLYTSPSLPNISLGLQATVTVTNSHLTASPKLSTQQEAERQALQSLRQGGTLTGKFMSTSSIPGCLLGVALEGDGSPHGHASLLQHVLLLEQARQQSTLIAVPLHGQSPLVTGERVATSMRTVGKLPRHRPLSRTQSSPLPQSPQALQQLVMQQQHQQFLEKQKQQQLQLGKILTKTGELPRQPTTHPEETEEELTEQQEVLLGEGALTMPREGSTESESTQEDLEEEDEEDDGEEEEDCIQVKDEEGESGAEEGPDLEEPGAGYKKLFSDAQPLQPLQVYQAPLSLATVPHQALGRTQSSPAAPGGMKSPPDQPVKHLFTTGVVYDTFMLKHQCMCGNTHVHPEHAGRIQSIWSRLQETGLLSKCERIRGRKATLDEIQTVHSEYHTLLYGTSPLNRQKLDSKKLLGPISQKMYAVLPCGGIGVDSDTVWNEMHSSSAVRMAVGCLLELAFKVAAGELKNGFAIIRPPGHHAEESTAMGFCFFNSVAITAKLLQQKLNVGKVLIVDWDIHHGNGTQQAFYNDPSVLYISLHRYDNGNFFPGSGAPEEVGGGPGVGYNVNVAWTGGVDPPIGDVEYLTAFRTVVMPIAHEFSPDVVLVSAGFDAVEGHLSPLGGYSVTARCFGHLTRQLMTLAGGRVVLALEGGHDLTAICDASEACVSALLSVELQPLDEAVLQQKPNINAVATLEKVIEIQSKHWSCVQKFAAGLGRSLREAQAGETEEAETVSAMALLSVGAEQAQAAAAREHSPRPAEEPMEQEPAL
Sequence of Histone deacetylase 2 (Homo sapiens) (Q92769 whole entry): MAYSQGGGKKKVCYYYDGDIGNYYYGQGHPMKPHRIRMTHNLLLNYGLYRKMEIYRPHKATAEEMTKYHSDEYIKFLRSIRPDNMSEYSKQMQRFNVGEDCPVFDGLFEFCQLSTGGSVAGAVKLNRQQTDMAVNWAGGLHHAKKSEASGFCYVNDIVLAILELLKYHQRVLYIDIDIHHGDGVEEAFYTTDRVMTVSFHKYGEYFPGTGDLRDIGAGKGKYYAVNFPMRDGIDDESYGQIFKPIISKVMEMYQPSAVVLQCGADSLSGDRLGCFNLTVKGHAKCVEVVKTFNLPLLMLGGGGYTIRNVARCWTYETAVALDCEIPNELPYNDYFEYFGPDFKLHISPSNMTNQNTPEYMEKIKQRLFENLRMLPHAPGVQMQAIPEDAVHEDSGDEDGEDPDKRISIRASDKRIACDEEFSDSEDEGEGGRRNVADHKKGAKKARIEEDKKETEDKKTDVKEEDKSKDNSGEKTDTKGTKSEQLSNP
T1 sequence (Q13547 whole entry): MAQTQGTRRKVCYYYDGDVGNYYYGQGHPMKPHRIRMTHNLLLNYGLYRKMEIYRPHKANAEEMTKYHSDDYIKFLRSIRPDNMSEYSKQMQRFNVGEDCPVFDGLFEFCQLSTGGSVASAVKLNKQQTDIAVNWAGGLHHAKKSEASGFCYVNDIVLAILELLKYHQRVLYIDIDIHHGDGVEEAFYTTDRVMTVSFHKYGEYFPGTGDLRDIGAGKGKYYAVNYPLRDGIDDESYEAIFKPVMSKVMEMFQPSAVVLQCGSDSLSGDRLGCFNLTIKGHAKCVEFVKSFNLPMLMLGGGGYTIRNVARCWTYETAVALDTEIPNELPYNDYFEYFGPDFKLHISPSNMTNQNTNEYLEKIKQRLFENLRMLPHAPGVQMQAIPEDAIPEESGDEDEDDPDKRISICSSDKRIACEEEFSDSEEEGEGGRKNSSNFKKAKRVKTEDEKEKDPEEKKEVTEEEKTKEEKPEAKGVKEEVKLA

In the case of `CN(CCCCCC(=O)Nc1cccc(-c2ccccc2)c1)S(N)(=O)=O`, the IC50 (at Histone deacetylase 1 [1]; in [2]) was over 10 µM throughout. Further, the outcome in [3], in [4], in [5], in assay [6] and in assay [7] was inactive.

For the molecule `NS(=O)(=O)NCCCCCC(=O)Nc1ccccc1`, the IC50 – broadly, the point on the concentration scale where inhibition reaches its midpoint – was over 10 µM on Histone deacetylase 1 [1] and 1.5 µM in assay [2].

`NS(=O)(=O)NCCCCCC(=O)Nc1cccc2cccnc12`: the outcome in assay [8] was inactive. Further, the IC50 on Histone deacetylase 1 [1] is over 10 µM; in assay [2], 0.39 µM.

As to `NS(=O)(=O)OCCCCCC(=O)Nc1cccc(-c2ccccc2)c1`, the IC50 (on Histone deacetylase 1 [1]; in [2]) was over 10 µM in each case. For the same molecule, the outcome in [3], in assay [4], in [5], in assay [6] and in assay [7] was inactive.

Consider `NS(=O)(=O)NCCCCCCC(=O)Nc1cccc(-c2ccccc2)c1`, for which the IC50 (at Histone deacetylase 1 [1]; in assay [2]) was over 10 µM in each case. For the same molecule, the outcome in [3], in assay [4], in assay [5], in assay [6] and in assay [7] was inactive.

Regarding `NS(=O)(=O)NCCCCCC(=O)Nc1nc(-c2ccccc2)cs1`, the outcome in assay [8] was inactive. Further, the IC50 on Histone deacetylase 1 [1] was over 10 µM; in [2], 0.9 µM; on Histone deacetylase 1 [9], over 50 µM. For the same molecule, the 50% effective concentration (EC50) (as a rule, the concentration giving half of the maximal effect) in the assay with T-24 [10] came to 20 µM; with T-24 [11] it was 3.5 µM.

For the molecule `NS(=O)(=O)NCCCCCC(=O)Nc1cccc(-c2ccccc2)c1`, the IC50 on Histone deacetylase 1 [1] is over 10 µM; in [2], 1.1 µM. Further, the result in [3], in assay [4], in assay [5], in assay [6] and in assay [7] was inactive.

For `COc1cc(NC(=O)[C@H](CCCCNS(N)(=O)=O)NC(=O)OCc2ccccc2)c2ncccc2c1`, the IC50 on Histone deacetylase 1 [1] stood at 0.46 µM; in [2], 0.06 µM; at Histone deacetylase 1 [9], 1.8 µM. The EC50 was 0.35 µM with T-24 [10] and 0.2 µM in the assay on T-24 [11].

As to `NS(=O)(=O)NCCCCCC(=O)Nc1ccc2ncccc2c1`, the result in assay [8] was inactive. Moreover, the IC50 was over 10 µM on Histone deacetylase 1 [1] and 0.49 µM in assay [2].

In the case of `Nc1ccccc1NC(=O)CCCCCCC(=O)Nc1cccc(-c2ccccc2)c1`, the half-inhibitory concentration (IC50) at Histone deacetylase 1 [1] was 0.49 µM; in assay [2] it was over 50 µM.

On to `COc1cc(NC(=O)CCCCCNS(N)(=O)=O)c2ncccc2c1`, for which the outcome in [8] was inactive. Further, the IC50 was over 10 µM at Histone deacetylase 1 [1], 0.44 µM in assay [2] and over 50 µM against Histone deacetylase 1 [9]. The EC50 with T-24 [10] was over 25 µM; in the assay with T-24 [11], 1 µM.

Take `CC(=O)NS(=O)(=O)NCCCCCC(=O)Nc1cccc(-c2ccccc2)c1`: the IC50 (on Histone deacetylase 1 [1]; in assay [2]) was over 10 µM in each case. For the same molecule, the result in assay [3], in assay [4], in assay [5], in assay [6] and in [7] was inactive.

For `O=C(CCCCCCC(=O)Nc1cccc(-c2ccccc2)c1)NO`, the IC50 (on Histone deacetylase 1 [1]; in [2]) was 0.009 µM each time.

`NS(=O)(=O)NC(=O)CCCCCC(=O)Nc1cccc(-c2ccccc2)c1`: the IC50 (on Histone deacetylase 1 [1]; in assay [2]) was over 10 µM in each case. Also, the outcome in assay [3], in [4], in assay [5], in assay [6] and in assay [7] was inactive.

On to `NS(=O)(=O)NCCCCC(=O)Nc1cccc(-c2ccccc2)c1`, for which the IC50 (on Histone deacetylase 1 [1]; in assay [2]) was over 10 µM in each case. Further, the result in [3], in assay [4], in [5], in assay [6] and in [7] was inactive.

For `NS(=O)(=O)NCCCC[C@H](NC(=O)OCc1ccccc1)C(=O)Nc1nc(-c2ccccc2)cs1`, the values for the IC50 (on Histone deacetylase 1 [1]; in assay [2]; on Histone deacetylase 1 [9]) were 0.16 µM, 0.18 µM and 2.3 µM, respectively. In addition, the EC50 is 0.7 µM with T-24 [10] and 0.6 µM with T-24 [11].

For the molecule `CNS(=O)(=O)NCCCCCC(=O)Nc1cccc(-c2ccccc2)c1`, the IC50 (at Histone deacetylase 1 [1]; in [2]) was over 10 µM throughout. Further, the result in assay [3], in assay [4], in assay [5], in [6] and in assay [7] was inactive.

For the molecule `NS(=O)(=O)NCCCCCC(=O)Nc1cnc2ccccc2c1`, the result in assay [8] was inactive. The results for the IC50 (at Histone deacetylase 1 [1]; in assay [2]) were over 10 µM and 0.71 µM, respectively.

On to `CN(C)S(=O)(=O)NCCCCCC(=O)Nc1cccc(-c2ccccc2)c1`, for which the IC50 (on Histone deacetylase 1 [1]; in assay [2]) was over 10 µM throughout. Further, the result in assay [3], in assay [4], in assay [5], in [6] and in assay [7] was inactive.
